Drawing on PubChem BioAssay AID977628 (Broad Institute, 2014), this text covers AC50 for 71 compounds.

Structures are written as SMILES. Inconclusive results are not listed.

The assay deals with E. coli mixed WT/h24 culture total growth, OD600, 24 h. Briefly: E. coli growth inhibition, wild-type GFP versus h24 humanized RFP strain, dose response, h24 mutant RFP vs wild-type GFP, cherry-pick (AID 977628).

Regarding `Cc1cccc(SCC(=O)Nc2ccccc2[N+](=O)[O-])c1`, the concentration at half-maximal activity (AC50) – broadly, the concentration at which the activity in the assay is half-maximal – is over 100 µM.

As for `COC(=O)c1cc(S(=O)(=O)NCc2ccc3c(c2)OCO3)cn1C`, the concentration at half-maximal activity (AC50) is over 100 µM.

`CC1CCCC(NC(=O)COC(=O)[C@@H]2CC(O)CN2S(=O)(=O)c2ccc3c(c2)OCCO3)C1C` (stereo partly specified) registered a concentration at half-maximal activity (AC50) of over 100 µM.

Take `Cc1cccc(N2CCN(Cc3nc(-c4ccc(F)cc4F)oc3C)CC2)n1`: the AC50 was over 100 µM.

Regarding `COc1ccc(NC(=O)Nc2cccc3c2O[C@H](CN(C)S(=O)(=O)c2ccc(Cl)cc2)[C@@H](C)CN([C@@H](C)CO)C3=O)cc1`, the concentration at half-maximal activity (AC50) was over 100 µM.

`O=C(NCc1ccc2c(c1)OCO2)c1sccc1Br` displayed a concentration at half-maximal activity (AC50) of over 100 µM.

The compound `COc1cccc(-c2ccc(NC(=O)C3CCCN(Cc4cnn(C(C)C)c4)C3)cc2)c1` (stereo unspecified) showed a half-maximal activity concentration (AC50) of over 100 µM.

As for `CCOc1ccc(C(C)=O)cc1CN1C(=O)NC2(CCCCCCC2)C1=O`, the AC50 is over 100 µM.

`CC(=O)NCCOc1nc(N2CCCCC2)nc(N2CCCCC2)n1` registered an AC50 of over 100 µM.

`C=CCn1c(SCC(=O)Nc2ccc3c(c2)OCCO3)nnc1-c1ccco1` showed a concentration at half-maximal activity (AC50) of over 100 µM.

`O=C(Nc1nc2ccccc2n1CCN1CCOCC1)c1ccccc1` showed an AC50 of over 100 µM.

For `O=C1OCCC1Sc1nc2ccccc2c(=O)n1Cc1ccccc1` (stereo unspecified), the half-maximal activity concentration (AC50) was over 100 µM.

Take `CN1OC[C@@H]2CN(C(=O)c3ccco3)[C@H](c3ccc(-c4ccc(C#N)cc4)cc3)C[C@@H]21`: the AC50 is over 100 µM.

Take `COc1ccc(C(CC(=O)c2ccc(O)cc2)S(=O)(=O)c2ccc(C)cc2)cc1` (stereo unspecified): the half-maximal activity concentration (AC50) is over 100 µM.

On to `CC1CCC2(CC1)SCC(=O)N2c1ccc(F)cc1` (stereo unspecified), for which the concentration at half-maximal activity (AC50) is over 100 µM.

The compound `O=C(CN1CCCCC1)n1c2ccccc2c2ccccc21` showed a half-maximal activity concentration (AC50) of over 100 µM.

The compound `COC(=O)c1ccc(OCC(=O)c2ccccc2OC)cc1` gave a half-maximal activity concentration (AC50) of over 100 µM.

`CCCNc1ccc(C(=O)OCC)cc1[N+](=O)[O-]` had an AC50 of over 100 µM.

With `CCOC(=O)c1c(C)[nH]c(C)c1S(=O)(=O)NCCN1CCN(c2ccccc2F)CC1`, the concentration at half-maximal activity (AC50) was over 100 µM.

`COc1ccc(OCCC(=O)OCC(=O)NCCC2=CCCCC2)cc1` came in with an AC50 of over 100 µM.

The compound `Cn1cc(CN(CCO)Cc2cccs2)c(-c2cccc(Cl)c2)n1` had an AC50 of over 100 µM.

`COc1ccccc1-c1noc2ncnc(Nc3ccccc3C)c12` showed a half-maximal activity concentration (AC50) of over 100 µM.

In the case of `COc1ccc(CC(=O)Oc2ccc(C)cc2C)cc1`, the half-maximal activity concentration (AC50) was over 100 µM.

The compound `Fc1ccc(Br)cc1SCCc1ccncc1` showed an AC50 of over 100 µM.

`S=c1nc(-c2cccc(Br)c2)[nH][nH]1` showed an AC50 of over 100 µM.

On to `O=C1OC[C@@H]2CCCN2C(=O)[C@@H](CC(=O)N(CCO)Cc2ccccc2)C/C=C\C[C@H]1Cc1ccc(F)cc1`, for which the AC50 is over 100 µM.

`Cc1cccc(C)c1NC(=O)CNC(=O)C(C)N1CCN(c2cccc(Cl)c2)CC1` (stereo unspecified) displayed an AC50 of over 100 µM.

`c1ccc(Cc2nc3ccccc3s2)cc1` yielded an AC50 of over 100 µM.

The compound `CC(C)(C)CC(=O)Nc1ccccc1N1CCN(c2ccccc2)CC1` displayed an AC50 of over 100 µM.

With `Cc1cccc(NC(=O)c2c(C)nn(-c3ccccc3)c2Cl)c1`, the half-maximal activity concentration (AC50) was over 100 µM.

Take `C[C@@H]1CN([C@@H](C)CO)C(=O)c2cc(NC(=O)C3CC3)ccc2O[C@H]1CN(C)C(=O)Nc1ccc(C(F)(F)F)cc1`: the concentration at half-maximal activity (AC50) is over 100 µM.

In turn, `Cc1cccc(C)c1NC(=O)C1(C)CSCC(=O)N1CCOc1ccccc1` (stereo unspecified) showed a half-maximal activity concentration (AC50) of over 100 µM.

Take `CCCCc1cc2c(cc1NC(=O)CN1CCCCC1)OCCO2`: the AC50 is over 100 µM.

`COc1cc2c(cc1OC)CN(CC(=O)Nc1ccccc1SC)CC2`: the AC50 was over 100 µM.

Compound `Cc1ccc(Cc2c(-c3cccc(Br)c3)nc3ccc(C)cn23)cc1` came in with an AC50 of over 100 µM.

On to `CCN(C(=O)COC(=O)CCc1ccccc1)c1ccccc1`, for which the AC50 is over 100 µM.

For `O=C(Cc1ccc(Br)cc1)Nc1cccc(-c2cn3c(n2)SCC3)c1`, the concentration at half-maximal activity (AC50) was over 100 µM.

For the compound `O=C(c1cc(S(=O)(=O)N2CCOCC2)ccc1Cl)N1CCc2ccccc2C1`, the AC50 was over 100 µM.

With `OCCN(Cc1ccccc1)Cc1ccc(F)c(F)c1`, the half-maximal activity concentration (AC50) is over 100 µM.

Consider `COCc1c(C#N)c(NCCc2ccc(F)cc2)nc(C)c1[N+](=O)[O-]`, for which the concentration at half-maximal activity (AC50) was over 100 µM.

The compound `CN(CCOc1ccccc1)S(=O)(=O)c1ccccc1C#N` displayed an AC50 of over 100 µM.

`Cc1ccn2cc(-c3cccc(NC(=O)c4cccs4)c3)nc2c1` came in with a half-maximal activity concentration (AC50) of over 100 µM.

As to `O=S(=O)(Nc1ccccc1N1CCCCC1)c1cccs1`, the AC50 is over 100 µM.

For the compound `Cc1ccc(OCCCC(=O)NC(C)c2ccccc2)c(C)c1` (stereo unspecified), the AC50 was over 100 µM.

Turning to `Cc1ccc(C2NC(c3ccc(C)cc3)C(C)C(=O)C2C)cc1` (stereo unspecified), the AC50 is over 100 µM.

`COC(=O)c1sc(C(C)(C)C)cc1CS(=O)(=O)c1ccc(Cl)cc1` displayed a concentration at half-maximal activity (AC50) of over 100 µM.

For the compound `CN(Cc1nnc(-c2ccc(F)cc2)o1)c1ccccc1`, the AC50 was over 100 µM.

Consider `COc1cccc(NC(=O)COC(=O)Cc2ccc(Br)cc2)c1`, for which the concentration at half-maximal activity (AC50) is over 100 µM.

Take `Cc1ccnc(NS(=O)(=O)c2ccc(NC(=O)c3ccc4c(c3)OCCO4)cc2)n1`: the AC50 was over 100 µM.

As to `COc1cccc(C(=O)c2c[nH]c(C(=O)NCc3cccnc3)c2)c1`, the AC50 is over 100 µM.

For the compound `COc1ccc(C(=O)NCCC2=CCCCC2)cc1[N+](=O)[O-]`, the AC50 was over 100 µM.

The compound `Cc1ccc(NC(=O)C2CCN(S(=O)(=O)c3ccc4c(c3)NC(=O)CO4)CC2)cc1` registered a concentration at half-maximal activity (AC50) of over 100 µM.

`CS(=O)(=O)Nc1ccccc1C(=O)NCCSc1ccccc1` showed an AC50 of over 100 µM.

`COc1ccc(NC(=O)c2cccs2)cc1C(=O)N1CCN(c2ccccc2)CC1` showed an AC50 of over 100 µM.

In the case of `CN(C)S(=O)(=O)c1ccc(Cl)c(C(=O)OCC(=O)NC(=O)c2cccn2C)c1`, the AC50 is over 100 µM.

In the case of `Cc1ccc(NC(=O)c2ccccc2F)c(NC(=O)c2ccccc2F)c1`, the AC50 was over 100 µM.

`O=C(NC1CCCCC1)C(c1cccc2ccccc12)n1c(=O)c(-c2ccco2)nc2ccccc21` (stereo unspecified) gave an AC50 of over 100 µM.

As to `Cc1cc(C(C)(C)C)oc1C(=O)N(CC(=O)NC1CCCC1)c1c(C)cccc1C`, the AC50 was over 100 µM.

Take `CCOC(=O)CN1C(=O)C(CC)Oc2ccc(Cl)cc21` (stereo unspecified): the half-maximal activity concentration (AC50) is over 100 µM.

For `CCOC(=O)c1cc(-c2ccc(OC)cc2)n[nH]1`, the AC50 was over 100 µM.

Take `Cc1nn2c(NCc3ccccn3)cc(C(C)C)nc2c1-c1ccccc1`: the AC50 was over 100 µM.

`CN(CC(=O)Nc1ccc(F)cc1)C(=O)COc1ccc([N+](=O)[O-])cc1Cl` came in with a half-maximal activity concentration (AC50) of over 100 µM.

Regarding `O=S1(=O)N[C@H](Cc2ccccc2)COc2cc(N3CCSCC3)ccc21`, the AC50 was over 100 µM.

`COC(=O)c1cc2c(c3c4cc(F)ccc4n(S(=O)(=O)c4cccc(C)c4)c13)C(=O)N(Cc1ccco1)C2` returned an AC50 of over 100 µM.

As for `CCOCCCNC(=O)C(NC(=O)c1ccccc1O)c1ccc(C)cc1` (stereo unspecified), the AC50 was over 100 µM.

Regarding `COc1ccccc1N1CCN(Cc2ccc(OC)c3ccccc23)CC1`, the concentration at half-maximal activity (AC50) is over 100 µM.

`Cc1ccc(S(=O)(=O)NC(C)C(=O)NCc2ccc(Cl)cc2)cc1` (stereo unspecified): the half-maximal activity concentration (AC50) is over 100 µM.

Regarding `Cc1cc(C)c(OCC(=O)OCC(=O)N2CCc3ccccc3C2)c(C)c1`, the AC50 is over 100 µM.

`O=C(CC1SC(=O)N(Cc2ccccc2Cl)C1=O)Nc1nccs1` (stereo unspecified) registered an AC50 of over 100 µM.

With `CC1CCCC(NC(=O)COC(=O)Cc2c[nH]c3ccccc23)C1C` (stereo unspecified), the AC50 was over 100 µM.

The compound `CN(C)CCNc1ncnc2c1sc1nc(N3CCCC3)c3c(c12)CC(C)(C)OC3` registered a concentration at half-maximal activity (AC50) of over 100 µM.
